`CCOC=O` [ethylformate] gave a flash point of -19 °C. `OCCO` [1,2-ethanediol] showed a flash point of 108 °C. With `C=CCCCCCC=C` [1,8-nonadiene] the flash point was 26 °C. `CCCCOCCO` [2-butoxyethanol] gave a flash point of 62 °C. In the case of `C/C=C\CCCC` [cis-2-heptene], the flash point is reported as -6 °C. In the case of `Cc1ccccc1C(C)C` [o-isopropyltoluene], the flash point is reported as 50 °C. `CCCCC(C)O` (stereo unspecified) [2-hexanol] showed a flash point of 46 °C. `CC#CCCCCCCCCC` [2-dodecyne] gave a flash point of 78 °C. `C=CCOCC=C` [diallylether] gave a flash point of -7 °C. Molecule `O=C1CCCCC1` [cyclohexanone] has a flash point of 43 °C. Molecule `CCC(O)CO` (stereo unspecified) [1,2-butanediol] has a flash point of 93 °C. Molecule `CCCCCCCOC(C)=O` [heptylacetate] has a flash point of 67 °C. `CC(C)(C)c1ccc(N)cc1` [4-tert-butylaniline] gave a flash point of 102 °C. `COC(=O)c1ccccc1` [methylbenzoate] showed a flash point of 80 °C. `CC(C)CN` [isobutylamine] gave a flash point of -10 °C. With `NC1CC1` [cyclopropylamine] the flash point was -25 °C. For `CC(C)COCCO` [2-isobutoxyethanol], the flash point was 51 °C. For `CCCCCC#CC(=O)OC` [methyl2-octynoate], the flash point was 89 °C. `CC(=O)C(C)=O` [2,3-butanedione] showed a flash point of 10 °C. In the case of `CCc1cccc(N)c1` [3-ethylaniline], the flash point is reported as 85 °C. Molecule `CCc1ccccc1` [ethylbenzene] has a flash point of 21 °C. `CC1(C)CCCCC1` [1,1-dimethylcyclohexane] showed a flash point of 7 °C. Molecule `CCCc1ccc(N)cc1` [4-propylaniline] has a flash point of 103 °C. `CC(C)OC(C)C` [diisopropylether] gave a flash point of -28 °C. Work on `CCCc1ccc(OC)cc1` [4-propylanisole] yielded a flash point of 82 °C. For `CCCCCCC(=O)OC` [methylheptanoate], the flash point was 52 °C. With `CC(C)C1CCC(=O)CC1` [4-isopropylcyclohexanone] the flash point was 65 °C. With `CCCCOC(=O)CC` [butylpropanoate] the flash point was 38 °C. With `CCCCCC(C)CC` (stereo unspecified) [3-methyloctane] the flash point was 24 °C. `CCCC(C)C(C)C` (stereo unspecified) [2,3-dimethylhexane] showed a flash point of 5 °C. Work on `CC(C)C(C)(C)C` [2,2,3-trimethylbutane] yielded a flash point of -24 °C. With `CC(C)(C)C1CCCCC1` [tert-butylcyclohexane] the flash point was 40 °C. Work on `C#CCCCC` [1-hexyne] yielded a flash point of -20 °C. For `CCCOC=O` [propylformate], the flash point was -3 °C. `CCCC(=O)OCC` [ethylbutanoate] showed a flash point of 20 °C. Work on `CCOC(=O)CC(C)=O` [ethylacetoacetate] yielded a flash point of 70 °C. Molecule `CCCCCCC(C)CC` (stereo unspecified) [3-methylnonane] has a flash point of 41 °C. For `CCC(=O)CCc1ccccc1` [1-phenyl-3-pentanone], the flash point was 103 °C. With `CC(C)CCCC(C)C` [2,6-dimethylheptane] the flash point was 26 °C. For `C=C(C)CCC` [2-methyl-1-pentene], the flash point was -27 °C. In the case of `CC(C)OCC1CO1` (stereo unspecified) [isopropylglycidylether], the flash point is reported as 33 °C. In the case of `CCCCCCCCCCS` [1-decanethiol], the flash point is reported as 99 °C. Work on `CCCCCCCCCCCC=O` [dodecanal] yielded a flash point of 102 °C. `CCCCI` [1-iodobutane] showed a flash point of 33 °C. For `CC1CO1` (stereo unspecified) [propyleneoxide], the flash point was -37 °C. For `C/C=C/CCC` [trans-2-hexene], the flash point was -25 °C. Work on `CC(CC(C)(C)C)CC(C)(C)CC(C)(C)C` (stereo unspecified) [2,2,4,4,6,8,8-heptamethylnonane] yielded a flash point of 95 °C. Work on `C=COCC` [ethylvinylether] yielded a flash point of -45 °C. Molecule `CC(C)C#N` [isobutyronitrile] has a flash point of 8 °C. `CC(C)COC(=O)c1ccccc1` [isobutylbenzoate] gave a flash point of 102 °C. `COC1CCCC1` [cyclopentylmethylether] gave a flash point of -1 °C.

From a flash point compilation (Sun et al. 2020)
